Results on 22 compounds are retold here after patent US8389541B2, “Inhibitors of protein tyrosine kinase activity” (MethylGene Inc., priority 2007, dated 2013).

One assay deals with CNV progression. Nature of the assay: In vivo choroidal neovascularization (CNV) model, laser-induced. Particulars: Brown-Norway rats, intravitreal injection 30 and/or 100 nmol/eye on Day 1 and/or Day 3 and/or Day 7, CNV area on Day 10. The text has this:
This test measures the capacity of compounds to inhibit CNV progression. CNV is the main cause of severe vision loss in patients suffering from age-related macular degeneration (AMD).
Male Brown-Norway rats (Japan Clea Co., Ltd.) were used in these studies.
Rats were anesthetized by intraperitoneal injection of pentobarbital, and the right pupil was dilated with 0.5% tropicamide and 0.5% phenylephrine hydrochloride. The right eye received 6 laser burns between retinal vessels using a slit lamp delivery system of Green laser Photocoagulator (Nidex Inc., Japan), and microscope slide glass with Heaton™ (AMO Inc) used as a contact lens. The laser power was 100 or 200 mW for 0.1 second and spot diameter was 100 μm. At the time of laser burn, bubble production was observed, which is an indication of rupture of Bruch's membrane which is important for CNV generation.
Rats were divided into the groups based on their body weight using SAS software (SAS institute Japan, R8.1) after laser irradiation (Day 0). After animals were anesthetized, and the right pupil dilated (as above mentioned), the right eye of the animal received the compound or vehicle by intravitreal injection (5 or 10 μL/eye) at doses of 30 and/or 100 nmol/eyeon Day 1 and/or Day 3 and/or Day 7. The compounds were dissolved or suspended in CBS, PBS, or other adequate vehicles before injection.
On Day 10, the animals were anesthetized with ether, and high molecular weight fluorescein isothiocyanate (FITC)-dextran (SIGMA, 2×10^6 MW) was injected via a tail vein (20 mg/rat). About 30 min after FITC-dextran injection, animals were euthanized by ether or carbon dioxide, and the eyes were removed and fixed with 10% formaline neutral buffer solution. After over 1 hour of fixation, RPE-choroid-sclera flat mounts were obtained by removing cornea, lens and retina from the eyeballs. The flat mounts were mounted in 50% glycerol on a microscope slide, and the portion burned by laser was photographed using a fluorescence microscope (Nikon Corporation, excitation filter:465-495 nm, absorption filter:515-555 nm). The CNV area was obtained by measurement of hyper-fluorescence area observed on the photograph using Scion image.
The average CNV area of 6 burns was used as an individual value of CNV area, and the average CNV area of compound treated group was compared with that of the vehicle-treated group. […]

For a further assay, the system named is MKN45 tumor. As to the kind of experiment: In vivo solid tumor disease model, MKN45. Further details: species or system mice. Particulars: Mus musculus, MKN-45, po, read-out: Tumor Growth Inhibition (%); for inhibition in vivo at 20 mg/kg: MKN45, 20 mg/kg orally daily; for inhibition in vivo at 40 mg/kg: 336 h, MKN45, 40 mg/kg orally daily, 14 days.
A further assay deals with A549 cells. Nature of the assay: Wound healing assay in A549 cells (HGF-stimulated). It counts as cell-based. Particulars: Homo sapiens, last dose that inhibited gap closing by more than 25%, 24 h, read-out: A549 WOUND_HEALING IC50. An outline of the steps: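 Confluent A549 cells in DMEM low glucose with 10% FBS were pre-treated with inhibitors (0.00032-10 uM) for 3 h, then scratch-wounded. Migration was stimulated with HGF-containing conditioned medium from 293T cells over-expressing human HGF, and culture continued for 24 h; a control was run on every plate.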

Assay [1] has as its target recombinant human c-Met/HGF receptor (Homo sapiens, UniProt P08581). As to the kind of experiment: In vitro receptor tyrosine kinase assay (DELFIA), c-Met/HGF receptor.
The next assay has as its target T1, VEGF receptor KDR (Homo sapiens, UniProt P35968).
T1 construct: made in house; host or cells: Sf9 cells (Spodoptera frugiperda), baculovirus
As to the kind of experiment: In vitro receptor tyrosine kinase assay (DELFIA), VEGF receptor KDR. It counts as biochemical. Particulars: GST-VEGFR2 806-1356, 0.6 uM ATP; read-out: VEGFR IC50.

The subject of another assay is DU145 cells. Nature of the assay: Scatter assay in DU145 cells (HGF-stimulated). It counts as cell-based. Particulars: Homo sapiens, DU-145, last dose that created an inhibitory effect on scattering, 24 h, read-out: DU145 SCATT. INHIB IC50. The procedure, abridged: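 DU145 prostate carcinoma cells were grown 48 h in MEM/10% FBS to form compact colonies, pre-treated with inhibitors (0.00032-10 uM) for 3 h, then stimulated with human HGF-containing 293T conditioned medium for 24 h. IC50 was taken as the last dose giving inhibition of scattering.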

A further assay addresses T2, c-Met (Homo sapiens, UniProt P08581).
T2 construct: endogenous in cells; host or cells: MKN45 gastric carcinoma cells
Nature of the assay: Inhibition of c-Met phosphorylation in MKN45 cells (direct ELISA). It counts as cell-based. Particulars: 3 h treatment, read-out: CMET ELISA IN MKN45 IC50. The procedure, abridged: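 MKN45 gastric carcinoma cells with amplified, constitutively active c-Met, grown 48 h and then treated with inhibitors for 3 h in triplicate. Lysates bound to plates and phospho-tyrosine detected by direct ELISA with chemiluminescence. IC50 from 4-parameter fit of triplicate means.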
A general note: ELISA stands for enzyme-linked immunosorbent assay.

Like-named read-outs stand apart in the source and are kept apart here.

T1 sequence (P35968 806-1356): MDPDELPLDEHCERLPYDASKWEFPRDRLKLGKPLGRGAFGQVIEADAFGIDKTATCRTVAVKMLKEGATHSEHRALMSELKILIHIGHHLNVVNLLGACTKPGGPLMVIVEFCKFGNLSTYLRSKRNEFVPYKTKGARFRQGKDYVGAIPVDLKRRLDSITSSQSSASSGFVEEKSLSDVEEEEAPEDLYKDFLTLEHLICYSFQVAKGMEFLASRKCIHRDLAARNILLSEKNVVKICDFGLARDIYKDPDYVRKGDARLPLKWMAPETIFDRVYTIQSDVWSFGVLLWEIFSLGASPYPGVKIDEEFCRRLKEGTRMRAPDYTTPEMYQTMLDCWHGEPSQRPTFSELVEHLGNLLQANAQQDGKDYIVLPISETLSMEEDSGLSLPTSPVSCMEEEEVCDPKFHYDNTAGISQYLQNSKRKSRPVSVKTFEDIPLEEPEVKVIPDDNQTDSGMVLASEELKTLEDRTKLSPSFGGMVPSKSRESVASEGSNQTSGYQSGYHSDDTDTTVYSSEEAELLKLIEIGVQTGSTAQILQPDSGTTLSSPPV
Sequence of recombinant human c-Met/HGF receptor (P08581 1078-1337): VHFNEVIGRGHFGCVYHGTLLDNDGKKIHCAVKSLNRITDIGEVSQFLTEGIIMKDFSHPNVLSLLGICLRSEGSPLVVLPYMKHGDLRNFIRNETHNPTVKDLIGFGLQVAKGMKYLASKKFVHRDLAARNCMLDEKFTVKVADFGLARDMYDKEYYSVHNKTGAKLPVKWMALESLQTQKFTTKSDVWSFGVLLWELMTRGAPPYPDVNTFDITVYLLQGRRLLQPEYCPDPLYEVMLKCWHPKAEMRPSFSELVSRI
T2 sequence (P08581 25-1390): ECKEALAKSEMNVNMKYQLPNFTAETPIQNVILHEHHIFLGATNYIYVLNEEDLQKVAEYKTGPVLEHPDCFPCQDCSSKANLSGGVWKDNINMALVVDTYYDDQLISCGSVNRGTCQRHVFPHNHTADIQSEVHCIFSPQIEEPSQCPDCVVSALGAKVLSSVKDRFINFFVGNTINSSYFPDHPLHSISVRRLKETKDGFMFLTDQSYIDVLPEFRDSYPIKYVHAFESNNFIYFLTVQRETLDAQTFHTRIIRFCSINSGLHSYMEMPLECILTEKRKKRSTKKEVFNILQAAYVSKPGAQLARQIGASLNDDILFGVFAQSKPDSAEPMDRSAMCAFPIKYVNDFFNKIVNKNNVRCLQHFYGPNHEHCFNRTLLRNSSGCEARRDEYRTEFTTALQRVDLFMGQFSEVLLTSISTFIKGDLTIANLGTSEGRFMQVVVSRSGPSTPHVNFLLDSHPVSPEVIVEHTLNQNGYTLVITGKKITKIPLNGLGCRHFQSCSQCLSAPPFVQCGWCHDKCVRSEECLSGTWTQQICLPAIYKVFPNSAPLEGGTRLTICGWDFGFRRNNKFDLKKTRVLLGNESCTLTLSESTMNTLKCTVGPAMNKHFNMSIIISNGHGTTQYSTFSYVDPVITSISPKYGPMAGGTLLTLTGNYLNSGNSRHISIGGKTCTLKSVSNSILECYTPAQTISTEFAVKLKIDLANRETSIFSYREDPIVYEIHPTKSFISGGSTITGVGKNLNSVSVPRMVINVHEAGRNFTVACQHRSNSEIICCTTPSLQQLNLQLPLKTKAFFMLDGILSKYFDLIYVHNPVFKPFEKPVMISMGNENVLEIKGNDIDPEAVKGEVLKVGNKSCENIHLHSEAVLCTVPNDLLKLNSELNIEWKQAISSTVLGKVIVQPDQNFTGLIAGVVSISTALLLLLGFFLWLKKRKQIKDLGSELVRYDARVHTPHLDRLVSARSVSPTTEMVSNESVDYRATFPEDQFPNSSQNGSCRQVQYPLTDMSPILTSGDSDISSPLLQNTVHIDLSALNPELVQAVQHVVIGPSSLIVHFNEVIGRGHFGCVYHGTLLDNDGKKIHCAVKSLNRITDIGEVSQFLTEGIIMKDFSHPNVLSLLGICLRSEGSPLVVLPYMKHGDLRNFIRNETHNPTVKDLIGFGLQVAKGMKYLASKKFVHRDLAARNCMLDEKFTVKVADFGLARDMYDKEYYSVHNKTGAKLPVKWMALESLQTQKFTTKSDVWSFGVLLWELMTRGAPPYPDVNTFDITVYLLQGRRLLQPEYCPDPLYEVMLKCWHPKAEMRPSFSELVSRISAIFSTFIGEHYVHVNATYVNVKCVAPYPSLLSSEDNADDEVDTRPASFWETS

Take `COCCNCc1cccc(-c2cc3nccc(Oc4ccc(NC(=O)Nc5cc(C)on5)cc4F)c3s2)n1` [162(269), 1-(3-fluoro-4-(2-(6-((2-methoxyethylamino)methyl)pyridin-2-yl)thieno[3,2-b]pyridin-7-yloxy)phenyl)-3-(5-methylisoxazol-3-yl)urea]: the “% Inhibition of CNV Progression” value in the assay with CNV progression is on record as “A (greater than or equal to 30% inhibition)”.
Consider `NCCCOCCOCCOCCCNCc1ccc(-c2cc3nccc(Oc4ccc(NC(=O)Nc5cc(C(F)(F)F)ccc5F)cc4F)c3s2)nc1` [177(284), 1-(4-(2-(5-(15-Amino-6,9,12-trioxa-2-azapentadecyl)pyridin-2-yl)thieno[3,2-b]pyridin-7-yloxy)-3-fluorophenyl)-3-(2-fluoro-5-(trifluoromethyl)phenyl)urea], for which the “% Inhibition of CNV Progression” value in the assay on CNV progression is recorded as “A (greater than or equal to 30% inhibition)”.
As for `CCOCCNCc1ccc(-c2cc3nccc(Oc4ccc(NC(=O)Nc5cc(C)ccc5F)cc4F)c3s2)nc1` [173(280), 1-(4-(2-(5-((2-ethoxyethylamino)methyl)pyridin-2-yl)thieno[3,2-b]pyridin-7-yloxy)-3-fluorophenyl)-3-(2-fluoro-5-methylphenyl)urea], in the assay with CNV progression, the “% Inhibition of CNV Progression” value is “A (greater than or equal to 30% inhibition)”.
On to `COC[C@H](C)NCc1cccc(-c2cc3nccc(Oc4ccc(NC(=S)NC(=O)Cc5ccc(F)cc5)cc4F)c3s2)c1` [drawing 361], for which the inhibition in vivo at 20 mg/kg in the assay on MKN45 tumor (168 h, 7 days) lay in the range of 25 to 50%.
Turning to `COCCNCc1ccc(-c2cc3nccc(Oc4ccc(NC(=S)NC(=O)Cc5ccccc5)cc4F)c3s2)cn1` [drawing 362], the inhibition in vivo at 20 mg/kg in the assay with MKN45 tumor (192 h, 8 days) is less than 25%.
Take `COCCNCCn1cc(-c2cc3nccc(Oc4ccc(NC(=O)CC(=O)N(C)c5ccccc5)cc4F)c3s2)cn1` [drawing 369]: the inhibition in vivo at 40 mg/kg with MKN45 tumor is less than 25%.
`COCCNCc1cnc(-c2cc3nccc(Oc4ccc(NC(=O)C5(C(=O)Nc6ccc(F)cc6)CC5)cc4F)c3s2)n1C` [163(270), N-(3-fluoro-4-(2-(5-((2-methoxyethylamino)methyl)-1-methyl-1H-imidazol-2-yl)thieno[3,2-b]pyridin-7-yloxy)phenyl)-N-(4-fluorophenyl)cyclopropane-1,1-dicarboxamide]: the “% Inhibition of CNV Progression” value with CNV progression was “A (greater than or equal to 30% inhibition)”.
Same read-out and setting: the same measure for `COCCNCc1ccc(-c2cc3nccc(Oc4ccc(NC(=O)CC(=O)N(C)c5ccccc5)cc4F)c3s2)nc1` [116(223), N1-(3-fluoro-4-(2-(5-((2-methoxyethylamino)methyl)pyridin-2-yl)thieno[3,2-b]pyridin-7-yloxy)phenyl)-N3-methyl-N3-phenylmalonamide]: “B (≧10% to <30% inhibition)”; for `COCCNCc1ccc(-c2cc3nccc(Oc4ccc(NC(=O)Nc5cc(C(F)(F)F)ccc5F)cc4F)c3s2)nc1` [146(253), 1-(3-fluoro-4-(2-(5-((2-methoxyethylamino)methyl)pyridin-2-yl)thieno[3,2-b]pyridin-7-yloxy)phenyl)-3-(2-fluoro-5-(trifluoromethyl)phenyl)urea]: “A (greater than or equal to 30% inhibition)”; for `C=CCNC(=O)Nc1ccc(Oc2ccnc3cc(-c4ccc(CNCCOC)cn4)sc23)c(F)c1` [167(274), 1-allyl-3-(3-fluoro-4-(2-(5-((2-methoxyethylamino)methyl)pyridin-2-yl)thieno[3,2-b]pyridin-7-yloxy)phenyl)urea]: “A (greater than or equal to 30% inhibition)”.
The same measure, in the same setting: next, `COCCNCc1cnc(-c2cc3nccc(Oc4ccc(NC(=O)CC(=O)Nc5ccccc5)cc4F)c3s2)n1C` [13(49), N^1-(3-Fluoro-4-(2-(5-((2-methoxyethylamino)methyl)-1-methyl-1H-imidazol-2-yl)thieno[3,2-b]pyridin-7-yloxy)phenyl)-N^3-phenylmalonamide]: “A (greater than or equal to 30% inhibition)”.
Consider `COCCNCc1ccc(-c2cc3nccc(Oc4ccc(NC(=S)NC(=O)Cc5ccc(F)cc5)cc4F)c3s2)cn1` [drawing 363], for which, in the assay with MKN45 tumor (192 h, 8 days), the inhibition in vivo at 20 mg/kg was in the range of 25 to 50%.
Turning to `COCCNCc1ccc(-c2cc3nccc(Oc4ccc(NC(=O)C5(C(=O)Nc6ccccc6)CC5)cc4F)c3s2)cc1` [drawing 364], the inhibition in vivo at 20 mg/kg in the assay with MKN45 tumor (192 h, 8 days) is no less than 75%.
For the compound `COCCNCc1cnc(-c2cc3nccc(Oc4ccc(NC(=O)CC(=O)Nc5ccccc5)cc4F)c3s2)n1C` [drawing 372], the inhibition in vivo at 20 mg/kg in the assay on MKN45 tumor (312 h, 13 days) lay in the range of 25 to 50%. Further, the inhibition in vivo at 40 mg/kg in the assay with MKN45 tumor was in the range of 25 to 50%.
Regarding `COCCNCc1ccc(-c2cc3nccc(Oc4ccc(NC(=S)NC(=O)Cc5ccccc5OC)cc4F)c3s2)nc1` [drawing 365], the inhibition in vivo at 20 mg/kg with MKN45 tumor (192 h, 8 days) was 25 to 50%.
Take `COCCNCCn1cnc(-c2cc3nccc(Oc4ccc(NC(=S)NC(=O)Cc5ccccc5)cc4F)c3s2)c1`: the IC50 (in the assay with A549 cells; in assay [1]; on VEGF receptor KDR; in the assay on DU145 cells; on c-Met) was less than 250 nM each time.
Take `O=C(Nc1ccccc1)C1(C(=O)Nc2ccc(Oc3ccnc4cc(-c5ccc(CNC6CC6)cc5)sc34)c(F)c2)CC1`: the IC50 (in general, the concentration at which inhibition is half-maximal) with A549 cells is 250 to 500 nM; in assay [1] it was less than 250 nM; at VEGF receptor KDR, less than 250 nM; with DU145 cells it was less than 250 nM; on c-Met, less than 250 nM.
On to `COCCNCCn1cc(-c2cc3nccc(Oc4ccc(NC(=O)C5(C(=O)Nc6ccccc6)CC5)cc4F)c3s2)cn1`, for which the IC50 (with A549 cells; in assay [1]; at VEGF receptor KDR; in the assay with DU145 cells; on c-Met) was less than 250 nM throughout.
For the compound `COCCNCCn1cc(-c2cc3nccc(Oc4ccc(NC(=S)NC(=O)Cc5ccccc5)cc4F)c3s2)cn1` [drawing 321], the IC50 with A549 cells is 250 to 500 nM; in assay [1], less than 250 nM; at VEGF receptor KDR it was less than 250 nM; in the assay with DU145 cells, 250 to 500 nM; at c-Met, less than 250 nM.
On to `COCCNCc1ccc(-c2cc3nccc(Oc4ccc(NC(=O)CC(=O)N(C)c5ccc(F)cc5)cc4F)c3s2)nc1` [drawing 352], for which the IC50 is 250 to 500 nM in the assay on A549 cells; less than 250 nM in assay [1]; less than 250 nM at VEGF receptor KDR; 250 to 500 nM in the assay on DU145 cells; less than 250 nM on c-Met.
Take `COC[C@H](C)NCc1cccc(-c2cc3nccc(Oc4ccc(NC(=S)NC(=O)Cc5ccc(F)cc5)cc4F)c3s2)c1` [drawing 297]: the IC50 in the assay on A549 cells is 250 to 500 nM; in assay [1], less than 250 nM; at VEGF receptor KDR, less than 250 nM; in the assay with DU145 cells, less than 250 nM; on c-Met it was less than 250 nM.
As to `COCCNCc1ccc(-c2cc3nccc(Oc4ccc(NC(=O)C5(C(=O)Nc6ccccc6)CC5)cc4F)c3s2)nc1` [drawing 350], the IC50 (in the assay with A549 cells; in assay [1]; on VEGF receptor KDR; in the assay on DU145 cells; on c-Met) was less than 250 nM throughout.
